Results: the supplement of paper PMC3937590

Tests used:
Assay in all cases: -log10 GI50 (growth inhibition 50%) (-log10(M)); higher = more potent growth inhibition
MDAMB453 = tested on: MDAMB453
How it was run: (§1)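 Breast cancer cell lines were exposed to each compound for 72 hours at nine doses in 1:5 serial dilution, in triplicate, with a luminescence read-out against a time-zero plate. A Gompertz curve was fitted to the dose-response data by nonlinear least squares. The value is minus log10 of GI50, the molar concentration giving the set level of growth inhibition. Values equal to the top dose carry a < qualifier.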

HCC202 = tested on: HCC202
How it was run: as §1

HS578T = tested on: HS578T
How it was run: as §1

HCC1143 = tested on: HCC1143
How it was run: as §1

HCC1419 = tested on: HCC1419
How it was run: as §1

184B5 = tested on: 184B5
How it was run: as §1

HCC70 = tested on: HCC70
How it was run: as §1

HCC1187 = tested on: HCC1187
How it was run: as §1

MCF12A = tested on: MCF12A
How it was run: as §1

HCC38 = tested on: HCC38
How it was run: as §1

HBL100 = tested on: HBL100
How it was run: as §1

Row | SMILES | -log10 GI50 (MDAMB453) | -log10 GI50 (HCC202) | -log10 GI50 (HS578T) | -log10 GI50 (HCC1143) | -log10 GI50 (HCC1419) | -log10 GI50 (184B5) | -log10 GI50 (HCC70) | -log10 GI50 (HCC1187) | -log10 GI50 (MCF12A) | -log10 GI50 (HCC38) | -log10 GI50 (HBL100)
1 | CCNCCCCNCCCCNCCCCNCCCCNC/C=C/CNCCCCNCCCCNCCCCNCCCCNCC | 6.28 | 6.28 | 4.93 | 6.88 | 6.51 | 5.62 | 6.55 | 6.15 | 6.2 | 6.81 | –
2 | CNC(=O)c1c(F)cccc1Nc1nc(Nc2cc3c(cc2OC)CCN3C(=O)CN(C)C)nc2[nH]ccc12 | 4.96 | 5.05 | 4.91 | 5.56 | 5.19 | 6.32 | 5.18 | 5.65 | 5.74 | 5 | 4.76
3 | COc1cc2c(Nc3ccc(NC(=O)c4ccccc4)cc3)ncnc2cc1OCCCN1CCOCC1 | < 4.3 | – | 5.88 | 6.07 | 5.32 | < 4.3 | 5.85 | 6.39 | 5.12 | 6.21 | –
4 | COc1ncc(-c2ccc3nccc(-c4ccnnc4)c3c2)cc1NS(=O)(=O)c1ccc(F)cc1F | 8.33 | 9.25 | 7.13 | 7.43 | 9.48 | 8.23 | 8.13 | 8.3 | 8.09 | 7.61 | –
5 | O=C(O)c1ccc(-c2c[nH]c3ncc(-c4ccccc4)cc23)cc1C1CCCC1 | < 4.18 | – | – | < 4.18 | < 4.18 | 5.97 | < 4.18 | – | 5.13 | < 4.48 | –
6 | O=C1C(Cl)=C(NCCN2CCOCC2)C(=O)c2ncccc21 | 5.26 | – | 5.7 | 5.7 | 5.72 | 5.57 | 5.52 | 5.73 | 5.76 | 5.64 | –
7 | O=C1NC(=O)/C(=C/c2ccc(-c3ccc(F)cc3O)o2)S1 | 4.69 | – | 5.06 | < 4.18 | 4.69 | 4.65 | 4.67 | 5.77 | 4.68 | < 4.18 | –
8 | Oc1cc(-c2nc(-c3ccccc3)[nH]c2-c2ccncc2)ccc1Cl | < 4.48 | – | 4.69 | 4.39 | 4.79 | 5.45 | 4.49 | 5.07 | 4.97 | 4.77 | –
9 | Cn1cnc2c(F)c(Nc3ccc(Br)cc3Cl)c(C(=O)NOCCO)cc21 [AZD6244] | < 4.3 | – | 4.75 | < 4.3 | 4.75 | 6.9 | 5.75 | < 4.3 | 6.69 | < 4.3 | –
10 | O=c1[nH]c2ccccc2n1C1CCN(Cc2ccc(-c3[nH]c4cc5ncnc5cc4nc3-c3ccccc3)cc2)CC1 [Akt inhibitor VIII] | 5.73 | – | 4.89 | 4.87 | 6.03 | 5.56 | 5.74 | 5.43 | 5.01 | 4.9 | –
11 | Cn1c(=O)n(-c2ccc(C(C)(C)C#N)cc2)c2c3cc(-c4cnc5ccccc5c4)ccc3ncc21 [BEZ235] | 6.92 | – | < 4.48 | < 4.48 | 7.2 | – | 6.8 | < 4.48 | 6.33 | < 4.48 | –
12 | CN(C)C/C=C/C(=O)Nc1cc2c(Nc3ccc(F)c(Cl)c3)ncnc2cc1O[C@H]1CCOC1 [BIBW2992] | 7.04 | – | – | 5.86 | 8.53 | 7.22 | 6.33 | – | 7.06 | 5.74 | –
13 | O=c1cc(-c2ccccc2)oc2cc(O)c(O)c(O)c12 [Baicalein] | 3.8 | 4.41 | 4.32 | 4.15 | 4.09 | < 3.78 | 4.31 | 4.94 | 4.78 | 4.52 | –
14 | CC(C)C[C@H](NC(=O)[C@H](Cc1ccccc1)NC(=O)c1cnccn1)B(O)O [Bortezomib] | 8.07 | 8.14 | 7.81 | 8.12 | 8.86 | 8.33 | 8.6 | 8.26 | 7.39 | 7.98 | 7.35
15 | COc1cc(Nc2c(C#N)cnc3cc(OCCCN4CCN(C)CC4)c(OC)cc23)c(Cl)cc1Cl [Bosutinib] | – | – | 5.8 | 5.31 | 5.97 | 6.26 | 6.03 | 5.5 | 5.99 | 6.05 | –
16 | C#Cc1cccc(Nc2ncnc3cc(OCCOC)c(OCCOC)cc23)c1 [Erlotinib] | 4.77 | 5.57 | < 4.18 | 4.24 | 5.2 | 6.32 | 5.76 | 5.12 | 6.27 | < 4.18 | < 4.18
17 | COc1cc([C@@H]2c3cc4c(cc3[C@@H](O[C@@H]3O[C@@H]5CO[C@@H](C)O[C@H]5[C@H](O)[C@H]3O)[C@H]3COC(=O)[C@H]23)OCO4)cc(OC)c1O [Etoposide] | 5.3 | 6.03 | 5.22 | 5.29 | 4.18 | 5.06 | 4.89 | 6.21 | 6.44 | 6.54 | 5.67
18 | CO[C@H]1C[C@@H]2CC[C@@H](C)[C@@](O)(O2)C(=O)C(=O)N2CCCC[C@H]2C(=O)O[C@H]([C@H](C)C[C@@H]2CC[C@@H](OCCO)[C@H](OC)C2)CC(=O)[C@H](C)/C=C(\C)[C@@H](O)[C@@H](OC)C(=O)[C@H](C)C[C@H](C)/C=C/C=C/C=C/1C [Everolimus] | 7.59 | – | – | 5.83 | 8.4 | 5.55 | 6.96 | – | 4.87 | 6.25 | –
19 | CSCC[C@H](NC(=O)[C@H](Cc1ccccc1)NC[C@@H](NC[C@@H](N)CS)C(C)C)C(=O)O [FTase inhibitor I] | < 4.18 | – | < 4.48 | < 4.48 | < 4.18 | < 4.18 | < 4.18 | < 4.48 | < 4.18 | < 4.48 | –
20 | O=C1c2ccccc2-[n+]2ccc3c([nH]c4ccccc43)c21 [Fascaplysin] | 7.06 | 7.37 | 5.98 | 6.56 | 6.58 | 6.53 | 6.9 | 7.83 | 6.45 | 6.56 | 6.26

Row | SMILES | -log10 GI50 (MDAMB453) | -log10 GI50 (HCC202) | -log10 GI50 (HS578T) | -log10 GI50 (HCC1143) | -log10 GI50 (HCC1419) | -log10 GI50 (184B5) | -log10 GI50 (HCC70) | -log10 GI50 (HCC1187) | -log10 GI50 (MCF12A) | -log10 GI50 (HCC38) | -log10 GI50 (HBL100)
21 | O=c1[nH]c(=O)n([C@H]2C[C@H](O)[C@@H](CO)O2)cc1F [Floxuridine] | 5.79 | – | 3.52 | 4.08 | 2.73 | 3.65 | 3.67 | 3.81 | 4.86 | 3.79 | –
22 | Cc1cncc2cccc(S(=O)(=O)N3CCCN(C(=O)CN)C[C@@H]3C)c12 [Glycyl H1152] | 4.58 | – | 5.82 | 5.05 | 4.77 | < 4.18 | 6.04 | 6.22 | 4.9 | 5.96 | –
23 | CC(C(C)N1CC(=O)NC(=O)C1)N1CC(=O)NC(=O)C1 (stereo not drawn) [ICRF-193] | 4.88 | – | 5.63 | < 4.3 | < 4.3 | < 4.48 | < 4.3 | 6.1 | 6.71 | 6.53 | –
24 | O=C(c1ccc(Nc2nccc(-c3cc4ccccc4s3)n2)cc1)N1CCC(N2CCCC2)CC1 [IKK 16] | 5.55 | 5.1 | 5.53 | 5.3 | 5.36 | 5.83 | 5.54 | 5.25 | 5.39 | 5.45 | –
25 | CCCCCN(C)CCC(O)(P(=O)(O)O)P(=O)(O)O [Ibandronate sodium] | 3.97 | – | 5.03 | 4.38 | 5.12 | 3.62 | 4.2 | 3.77 | 3.73 | 4.3 | –
26 | C/C(=C\c1csc(C)n1)[C@@H]1C[C@@H]2O[C@]2(C)CCC[C@H](C)[C@H](O)[C@@H](C)C(=O)C(C)(C)[C@@H](O)CC(=O)N1 [Ixabepilone] | 8.34 | 6.37 | 8.62 | 8.01 | 4.93 | 6.76 | 8.85 | 8.66 | 8.13 | 8.55 | –
27 | CS(=O)(=O)CCNCc1ccc(-c2ccc3ncnc(Nc4ccc(OCc5cccc(F)c5)c(Cl)c4)c3c2)o1 [Lapatinib] | 5.29 | 6.12 | < 4.78 | < 4.78 | 6.61 | 5.24 | 5.4 | < 4.78 | – | < 4.78 | –
28 | CC(C)C[C@@H](C=O)NC(=O)[C@H](CC(C)C)NC(=O)[C@H](CC(C)C)NC(=O)OCc1ccccc1 [MG-132] | 6.41 | – | 6.64 | 6.8 | 6.8 | 7.79 | 7.19 | 7.1 | 7.32 | 6.6 | –
29 | NS(=O)(=O)OC[C@@H]1C[C@@H](n2ccc3c(N[C@H]4CCc5ccccc54)ncnc32)C[C@@H]1O [MLN4924] | 5.81 | – | 6.63 | 6.58 | 6.68 | 6.93 | 5.47 | 6.09 | 7.04 | 7.3 | –
30 | NS(=O)(=O)c1ccc(Nc2nc(OCC3CCCCC3)c3[nH]cnc3n2)cc1 [NU6102] | 4.91 | – | 4.69 | 4.87 | 4.54 | 5.39 | 4.71 | 5.11 | 4.8 | 5.03 | –
31 | CC[C@H](CO)Nc1nc(NCc2ccccc2O)c2ncn(C(C)C)c2n1 [Olomoucine II] | 5.31 | – | 5.18 | 5.51 | 5.36 | 5.53 | 5.47 | 5.18 | 5.22 | 5.53 | –
32 | O=C(/C=C/C#Cc1cccc(NS(=O)(=O)c2ccccc2)c1)NO [Oxamflatin] | 6.56 | – | 5.86 | 6.28 | 5.88 | 6.06 | 6.36 | 6.19 | 5.76 | 6.77 | –
33 | O=S(=O)(CC1CS1)c1ccc(Oc2ccccc2)cc1 (stereo not drawn) [SB-3CT] | < 3.78 | – | 4.42 | < 4 | < 3.78 | < 3.78 | < 3.78 | 4.83 | < 3.78 | 4.31 | –
34 | N#Cc1c(-c2ccccc2)cc(-c2cc(Br)ccc2O)[nH]c1=O [TCS PIM-11] | < 3.88 | – | < 4.18 | < 3.88 | 4.31 | 5.61 | 4.47 | 4.42 | 4.36 | 3.95 | –
35 | CO[C@H]1C[C@@H]2CC[C@@H](C)[C@@](O)(O2)C(=O)C(=O)N2CCCC[C@H]2C(=O)O[C@H]([C@H](C)C[C@@H]2CC[C@@H](OC(=O)C(C)(CO)CO)[C@H](OC)C2)CC(=O)[C@H](C)/C=C(\C)[C@@H](O)[C@@H](OC)C(=O)[C@H](C)C[C@H](C)/C=C/C=C/C=C/1C [Temsirolimus] | – | – | 4.66 | 5.8 | 7.27 | 5.29 | 6.49 | 6.1 | 5.03 | 4.91 | –
36 | CC(/C=C/C(=O)NO)=C\[C@@H](C)C(=O)c1ccc(N(C)C)cc1 [Trichostatin A] | 5.22 | 6.4 | 4.77 | 4.77 | 4.9 | 4.34 | 4.84 | 5.32 | 4.71 | 5.22 | –
37 | Cc1cc(Nc2cc(N3CCN(C)CC3)nc(Sc3ccc(NC(=O)C4CC4)cc3)n2)n[nH]1 [VX-680] | 5.03 | – | 6.57 | 6 | 4.81 | 5.74 | 5.6 | 6.89 | 6.33 | 6.74 | –
38 | CCCC(CCC)C(=O)O [Valproic acid] | 3.15 | – | 2.32 | 2.66 | 2.93 | 3.07 | 2.99 | 2.78 | 2.74 | 3.05 | –
39 | O=C(CCCCCCC(=O)Nc1ccccc1)NO [Vorinostat] | 4.49 | 5.03 | 3.53 | 3.9 | 4.27 | 3.84 | 4.46 | 4.79 | 3.77 | 4.47 | –
40 | Cc1cc(C(=O)N2CCN(c3cccc(Cl)c3)CC2)n(-c2ccccc2)n1 [XRP44X] | 6.01 | – | 6 | 5.69 | < 3.88 | 6.55 | 5.97 | 6.05 | 6.67 | 5.77 | –
